# Tests used:
# lungs of live rats = experiment: Proton MRI (S0/T2 bivariate analysis) of lungs after intratracheal bleomycin instillation; format: in vivo, Sprague-Dawley rats
# Experimental: In these experiments, three groups of Sprague-Dawley rats (n=5) were instilled intratracheally with bleomycin (2.5 U/kg or 3.5 U/kg) in saline or with saline only. Rats were imaged at 2.0 T using a multi-slice Carr-Purcell-Meilboom-Gill (CPMG) sequence with 6 ms echo spacing. Signal intensity (S0) and T2 were calculated on a pixel-by-pixel basis using images collected before dosing and 1, 2, 4, and 7 weeks after. At each time point, data from dosed animals were compared to controls, and bivariate statistical analysis was employed to classify image pixels containing abnormal tissue. At week 7, pulmonary function tests were performed, then all rats were sacrificed, left lungs were formalin fixed and tri-chrome stained for histological analysis of collagen content, and right lungs were used to measure water and hydroxyproline (collagen) content.
# Animal handling and treatment procedures followed a protocol approved by the Institutional Animal Care and Use Committee. A total of 18 male Sprague-Dawley rats weighing 196±8 g were used. […]
# MRI Analysis. Images were reconstructed using a standard 2D Fourier transform, then they were read into Mathematica 6.0 (Wolfgram Research, Champaign, Ill.) for further analysis. […] The mean background noise was measured from the first image of each stack. […]
# Following segmentation, data for each rat at each time point were written to a columnar data file that contained S0, T2, slice number, and the corresponding pixel coordinates. […] A scatter plot of T2 (y-axis) vs. S0 (x-axis) was then generated to show the clustering of the data and the relationship between the measured parameters (for example, see FIG. 2A). Using a Mathematica script and bivariate statistical analysis, an ellipsoid was calculated that encircled ˜95% of the data points that were heretofore defined as “normal” lung with 95% confidence.
# Each dosed animal was compared to the control group at the same time point, and data points within the ellipsoid were deleted as shown in FIG. 4B. The percentage of total pixels that were “abnormal” was calculated for each animal at each time point. […]
# [1] = Body weight and animal welfare after bleomycin instillation; format: in vivo, Sprague-Dawley rats
# Excerpt: Animal handling and treatment procedures followed a protocol approved by the Institutional Animal Care and Use Committee. A total of 18 male Sprague-Dawley rats weighing 196±8 g were used. They were divided into three groups of n=6: control, low-dose (LD), and high-dose (HD). A single animal per dose group died immediately after dosing. Therefore, each group was left with n=5. No additional unanticipated mortality occurred for the duration of the experiment.
# In brief, rats were first weighed then injected subcutaneously with 0.02 mL/kg body weight (BW) glycopyrrolate to inhibit oral secretions and facilitate insertion of an endotracheal tube. After 10-15 minutes, animals were anesthetized with 3-4% isoflurane in oxygen-enriched air (30% O2, 70% N2).
# Other than the initial weight loss, no other outward signs of distress were observed.
substance,measurement,setting,value
bleomycin sulfate,response of the LD group,"lungs of live rats; 2.5 U/kg BW intratracheal (LD), after the first two weeks of the study",very mild response
same,"percentage of ""abnormal"" pixels vs control rats","lungs of live rats; 2.5 U/kg BW intratracheal (LD), by week 4",essentially indistinguishable from the control rats
same,"response (fraction of ""abnormal"" pixels) compared with LD rats","lungs of live rats; 3.5 U/kg BW intratracheal (HD), throughout the experiment (7 weeks)",stronger response
same,breathing under anesthesia,"[1]; 3.5 U/kg BW (HD), weeks 1, 2 and 4",struggle with breathing under anesthesia
same,body weight change,"[1]; both dose groups (2.5 and 3.5 U/kg BW), first week",lost a significant amount of weight
